Reference: US20030119800A1, “Bone anabolic compounds and methods of use” (priority 2001, published 2003)
Starred links: 1 amine or outer side, 2 acyl side, 3 side chain; linkers in the order of their positions; H or OH if unused. Positions of bridges follow the written chain, without caps; N, C: chain ends. Non-standard residues stand in square brackets, D forms with d. Residues, ends and D or L forms follow the SMILES beside them. Chains are numbered I, II in the order given. Actinocin(9to1) = Cc1c2oc3c(C)ccc(C(=O)[*:1])c3nc-2c(C(=O)[*:2])c(N)c1=O; NMeV = CN[C@H](C(=O)O)C(C)C; Sar = CNCC(=O)O

What was measured:
[1] = test system: calvaria-derived murine osteoblastic cells; assay: Etoposide-induced apoptosis of calvaria-derived osteoblastic cells; assay type: cell-based, mouse; settings: for difference in potency in osteoblasts from one sex versus the other: cell preparations from females or males; for etoposide-induced apoptosis in primary cultures of osteoblasts: cells from female or male mice, dose dependent manner; for effect of synthesis inhibitor on the protective effect of E2 on etoposide-induced apoptosis: murine calvaria derived osteoblasts, doses not affecting cell viability, data not shown
Excerpt: HeLa cells were co-transfected with reporter constructs in which SRE or AP-1 drive the expression of secreted alkaline phosphatase (SEAP), along with the wild type ERα (A and B); or its ligand binding domain (E), or E fused to a membrane (E-Mem) or nuclear (E-Nuc) localization sequence (A). A dominant negaitve (dn) MEK or dn Jnk were also introduced into a subset of the ERα transfected cells. […] In FIGS. 1A and 1B, 100% indicates activity in vehicle treated cells. (C) HeLa cells were co-transfected with the ERα and nEGFP and wild type or dn mutants of the indicated transcription factors. […] (D) HeLa cells (upper panel) were transiently co-transfected with the ERα, a nonphosphorylatable dn mutant of Bad. Calvaria-derived murine osteoblastic cells (lower panel) were pre-treated with the P13K inhibitor wortmannin. Cells were then treated as in (C). […] (E) Proposed model for a kinase-mediated non-genotropic regulation of gene transcription and apoptosis by sex steroids.
(§1) Osteoblastic cells (A) were isolated from calvaria of neonatal female or male mice, the sex of which was determined by Southern blot analysis of liver DNA with a Y chromosome specific cDNA probe; and cultured as previously described. The ability of the indicated steroids to protect against etoposide induced apoptosis was determined as in FIG. 1D, lower panel. (B) Osteoclasts were generated in bone marrow cultures from adult female or male mice, and then treated with vehicle or the indicated concentrations of steroids for 24 hours at which point the number of cells undergoing apoptosis was determined. Representative results from 1 of 4 females and 1 of 4 males examined are shown. Each point represents the mean of triplicate determinations±SD. *p<0.05 vs. vehicle, by ANOVA. (C & D) Eight-month old Swiss Webster mice (n=8-10 per group) were sham-operated, ovariectomized (OVX) or orchidectomized (ORX). […] BMD and wet uterine or seminal vesicle weight was determined six weeks later. Bars indicate means±SD. *p<0.05 vs OVX or ORX.
(§2) Quantification of apoptotic cells in vitro: Apoptosis of HeLa cells or calvaria-derived osteoblastic cells was quantified by direct visualization of changes in nuclear morphology or by trypan blue staining, respectively, as previously described (Kousteni et al, 2001). Apoptosis of osteoclasts, derived from bone marrow cells cultured with 30 ng/ml M-CSF and 30 ng/ml soluble RANK ligand, was quantified by measuring caspase 3 activity as previously described (Weinstein et al, 2002).

[2] = test system: osteoclasts generated in bone marrow cultures from adult female or male mice; assay: Osteoclast apoptosis in bone marrow derived cultures; assay type: cell-based, mouse
Experimental: as §1
FIG. 8 illustrates the pro-apoptotic effect of sex steroids on osteoclasts requires Src/ERK signaling. […] After 24 hours, the percentage of apoptotic osteoclasts was determined as in FIG. 7.
as §2

[3] = test system: OVX or ORX Swiss Webster mice; assay: Gonadectomized (OVX or ORX) Swiss Webster mice with 60-day slow release pellets: bone and reproductive tissues; assay type: in vivo, mouse; settings: for gonadectomy-induced changes (osteoblast apoptosis, loss of BMD, osteoblastogenesis and osteoclastogenesis): replacement dose pellets (E2 0.025 mg, DHT 10 mg), OVX or ORX, irrespective of sex
Experimental: as §1
FIG. 9 illustrates the equivalence of the skeletal actions of estrogens and androgens in female and male mice. […] Six weeks later, osteoblast apoptosis in histologic sections of the vertebrae (A), osteoblastogenesis and osteoclastogenesis in ex vivo bone marrow cultures (B and C), and serum osteocalcin concentration (D) were determined. Bars indicate means±SD, *p<0.05 vs OVX or ORX.
Global, spine and hindlimb BMD was determined at both 4 and 6 weeks later in the experiment with the 8 month old females, and at 6 weeks only in the experiments with the 6 month old females and males (A, B and C). The 6 week BMD data in females (B) represent pooled values from the two experiments with the 6- and the 8-month old mice.
Longitudinal undecalcified sections of the distal femur are shown in (B). […] Osteoblast apoptosis in sections of L1-L4 vertebrae from females (8 month old) and males (C).
Histomorphometric analysis of L1-L4 vertebrae from 6 month old females (A-F) and pooled serum osteocalcin levels from the 6 and 8 month old females (G). […] The ANGELS compounds described herein are useful for maintaining and/or increasing bone mass and/or strength and/or density in mammals. Mammals, preferably humans, in need of such compounds can include those suffering from such conditions as female osteoporosis (post menopausal), male osteoporosis, glucocorticoid-induced osteoporosis, immobilization and aging-related osteoporosis, idiopathic or juvenile osteoporosis, transplantation-related osteoporosis, and alveolar ridge bone loss. In addition, the compounds described herein are particularly useful for administration to subjects that are unable or unwilling to tolerate therapies that have a masculinizing or feminizing effect. For example, subjects such as breast cancer patients (especially those with bone metastasis on gonadotropin […] hormone (GnRH) or ovariectomized), prostrate cancer patients (especially those on GnRH/castration therapy), and myeloma/lymphoma patients are frequently poor candidates for treatment with estrogen or androgens because of the risk of a recurrence of the underlying condition, e.g., cancer.
Wet uterine (A) or seminal vesicle weight (B) of female and male mice described in FIG. 11. […] Note the following morphologic differences in the uteri of OVX- and OVX+4-estren-3α,17β-diol-treated mice as compared to uteri from sham-operated and OVX+E2-treated mice: thin and atrophic columnar epithelium; compact stroma; decreased number of glands; decreased nucleus to cytoplasmic ratio in the columnar epithelial, endometrial stroma, and myometrial cells; and absence of mitotic activity. (D) Proliferation of MCF-7 cells was determined by ^3H-thymidine uptake.
For these studies, mature Swiss Webster mice (8 month old), n=8-10 per group, were sham-operated or gonadectomized (GNDX). […]

[4] = test system: cells from mice lacking both ERα and ERβ (DERKO); settings: cited from earlier work
DERKO mice = settings: mouse, in vivo; cited from earlier work
Bad = assay: E2-induced phosphorylation of Bad; assay type: cell-based; settings: studies not shown (Kousteni et al, 2002)
ERα = molecular target: T1, ERα (Homo sapiens, UniProt P03372); assay: SRE-SEAP and AP-1-SEAP reporter assays in HeLa cells transfected with ERα; assay type: cell-based; settings: steroids 10^−8 M for 15 minutes (E2 as little as five minutes), SEAP six hours later
T1 construct: HeLa cells transfected with the full length ERα; expressed in transfected cells; host or cells: HeLa
T1 sequence (P03372 whole entry): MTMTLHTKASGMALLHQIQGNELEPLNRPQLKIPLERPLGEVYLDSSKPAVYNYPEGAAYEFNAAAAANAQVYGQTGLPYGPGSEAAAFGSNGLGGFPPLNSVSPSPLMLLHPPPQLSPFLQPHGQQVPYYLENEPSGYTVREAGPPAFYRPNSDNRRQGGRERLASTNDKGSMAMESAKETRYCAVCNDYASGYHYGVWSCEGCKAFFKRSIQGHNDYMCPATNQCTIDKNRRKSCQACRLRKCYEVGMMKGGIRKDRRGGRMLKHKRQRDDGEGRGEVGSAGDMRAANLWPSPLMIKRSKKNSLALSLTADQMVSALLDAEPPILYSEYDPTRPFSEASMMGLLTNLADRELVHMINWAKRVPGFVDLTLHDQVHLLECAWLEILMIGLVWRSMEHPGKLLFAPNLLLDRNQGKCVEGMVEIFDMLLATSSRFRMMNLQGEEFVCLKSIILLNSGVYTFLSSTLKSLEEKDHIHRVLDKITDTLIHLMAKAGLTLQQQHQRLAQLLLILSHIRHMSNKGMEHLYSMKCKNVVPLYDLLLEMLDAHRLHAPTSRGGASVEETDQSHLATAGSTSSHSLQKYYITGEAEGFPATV
Experimental: HeLa cells were co-transfected with reporter constructs in which SRE or AP-1 drive the expression of secreted alkaline phosphatase (SEAP), along with the wild type ERα (A and B); or its ligand binding domain (E), or E fused to a membrane (E-Mem) or nuclear (E-Nuc) localization sequence (A). A dominant negaitve (dn) MEK or dn Jnk were also introduced into a subset of the ERα transfected cells. Cells were exposed to vehicle or the indicated steroids (10^−8M) for 15 minutes. The steroid containing media were then removed, the cells were washed twice, and the cultures were continued in fresh medium without steroids. Supernatants were collected six hours later and SEAP activity was assayed. In FIGS. 1A and 1B, 100% indicates activity in vehicle treated cells. (C) HeLa cells were co-transfected with the ERα and nEGFP and wild type or dn mutants of the indicated transcription factors. […] (D) HeLa cells (upper panel) were transiently co-transfected with the ERα, a nonphosphorylatable dn mutant of Bad. […] Cells were then treated as in (C).
Transient transfections and reporter assays: HeLa cells were transfected using Lipofectamine Plus (Life Technologies Inc.). For reporter assays (luciferase or secreated alkaline phosphatase SEAP), serum-starved cells were treated with the indicated steroids for 15 min after which the steroid-containing media were removed, cells washed twice with 1% BSA in PBS, and fresh media without steroid were added. SEAP or luciferase assays were performed 6 h later using the Great EscAPe SEAP Chemiluminescence Kit (Clontech, Palo Alto, Calif.) or the dual luciferase Kit (Promega, Madison, Wis.), respectively, according to the manufacturer's instructions. Both reporter activities were normalized to renilla luciferase activity.

Structure (SMILES): C[C@]12CCC(=O)C[C@@H]1CC[C@@H]1[C@@H]2CC[C@]2(C)[C@@H](O)CC[C@@H]12 [DHT, dyhydrotestosterone]
- difference in potency in osteoblasts from one sex versus the other [1]: no difference
- etoposide-induced apoptosis in primary cultures of osteoblasts [1]: attenuated etoposide-induced apoptosis
- difference in potency in osteoclasts from females and males [2]: no difference
- bone compression strength in the vertebrae, male mice ([3]; L5, ORX): equally effective
- BMD values in the spine versus the untreated ORX group ([3]; ORX males, 6 weeks): not
- wet uterine weight ([3]; OVX females, pellets DHT 10 mg or 4-estren-3α,17β-diol 7.6 mg): did restore
- gonadectomy-induced changes (osteoblast apoptosis, loss of BMD, osteoblastogenesis and osteoclastogenesis) [3]: effectively prevented

Structure (SMILES): C[C@]12CC[C@@H]3c4ccc(O)cc4CC[C@H]3[C@@H]1CC[C@@H]2O [E2, 17β-estradiol]
- difference in potency in osteoblasts from one sex versus the other [1]: no difference
- etoposide-induced apoptosis in primary cultures of osteoblasts [1]: attenuated etoposide-induced apoptosis
- difference in potency in osteoclasts from females and males [2]: no difference
- effect on the bone marrow cavity ([3]; 4-estren-3α,17β-diol 7.6 mg pellet, E2 pharmacologic dose 100× the replacement dose): closing the bone marrow cavity
- longitudinal undecalcified sections of the distal femur ([3]; 4-estren-3α,17β-diol at 300× ERT versus vehicle or E2 1× ERT, E2 at 100× ERT): cancellous sclerosis
- seminal vesicle weight ([3]; ORX males, pellets E2 0.025 mg or 4-estren-3α,17β-diol 7.6 mg): failed to restore
- osteoclast number ([3]; as compared to the OVX group): suppressed
- rate of bone formation ([3]; as compared to the OVX group): suppressed
- gonadectomy-induced changes (osteoblast apoptosis, loss of BMD, osteoblastogenesis and osteoclastogenesis) [3]: effectively prevented
- ERK phosphorylation in DERKO cells [4]: stimulates
- osteoblast apoptosis in DERKO cells [4]: prevents
- osteoclast apoptosis in DERKO cells [4]: stimulates
- bone loss following OVX in DERKO mice (DERKO mice): prevented

Structure (SMILES): C[C@]12CC[C@@H]3c4ccc(O)cc4C[C@@H](CCCCCCCCC[S+]([O-])CCCC(F)(F)C(F)(F)F)[C@H]3[C@@H]1CC[C@@H]2O (stereo partly drawn) [ICI 182,780]
- effect of antagonist on the effects of E2 or DHT on the lifespan of osteoblasts [1]: blocked
- effect of antagonist on the effects of E2 or DHT on the lifespan of osteoclasts [2]: blocked
- effect of antagonist on the effects of E2 in the DERKO cells [4]: prevented

Structure (SMILES): COc1cccc(-c2cc(=O)c3ccccc3o2)c1N [PD98059]
- effect of inhibitor on E2-induced phosphorylation of Bad (Bad): abolished

Structure (SMILES): Cc1ccc(-c2nn(C(C)(C)C)c3ncnc(N)c23)cc1 [PP1]
- effect of inhibitor on the pro-apoptotic effects of the sex steroids and 4-estren-3α,17β-diol on osteoclasts ([2]; pre-treatment for 1 hour prior to E2 or DHT): abrogated

Structure (SMILES): C[S+]([O-])c1ccc(-c2nc(-c3ccncc3)c(-c3ccc(F)cc3)[nH]2)cc1 (stereo not drawn) [SB203580]
- effect of kinase inhibitor on the anti-apoptotic effect of E2 and of 4-estren-3α,17β-diol ([1]; FIG. 1D, pre-treated calvaria-derived murine osteoblastic cells): not

Structure (SMILES): Cc1c2oc3c(C)ccc(C(=O)N[C@@H]4C(=O)N[C@H](C(C)C)C(=O)N5CCC[C@H]5C(=O)N(C)CC(=O)N(C)[C@@H](C(C)C)C(=O)O[C@@H]4C)c3nc-2c(C(=O)N[C@@H]2C(=O)N[C@H](C(C)C)C(=O)N3CCC[C@H]3C(=O)N(C)CC(=O)N(C)[C@@H](C(C)C)C(=O)O[C@@H]2C)c(N)c1=O [actinomycin D] (I: T[dV]P[Sar][NMeV] / II: T[dV]P[Sar][NMeV]; ester I:1-I:C, II:1-II:C; linker I:N-II:N via Actinocin(9to1))
- effect of synthesis inhibitor on the protective effect of E2 on etoposide-induced apoptosis [1]: abrogated

Structure (SMILES): C[C@@H]1C[C@@H]([C@H](O)CC2CC(=O)NC(=O)C2)C(=O)[C@@H](C)C1 [cyclohexamide]
- effect of synthesis inhibitor on the protective effect of E2 on etoposide-induced apoptosis [1]: abrogated

Structure (SMILES): c1cn[nH]c1 [pyrazole]
- AP-1-dependent transcriptional activity (AP-1-SEAP) (ERα): not
- SRE-dependent transcriptional activity (SRE-SEAP) (ERα): not
